Experiment [1] has as its system strain ATCC®7349 of C. tropicalis. As to the kind of experiment: Sensitivity test by HCA microscopy (chitin level, Calcofluor White; cell count). It is filed as cell-based, Candida tropicalis. As to conditions: SC medium; for decrease of the number of cells / increase of the chitin level in the wall of the cells: vs cells in the absence of antifungal agent; for increase of the chitin level in the wall of the cells: concentration gradient of Table 1. Here is the method: (§1) The strains of Candida were incubated beforehand at 30° C. overnight in a yeast extract medium—peptone dextrose (YPD) (1% bacto peptone, 0.5% yeast extract, 2% glucose, 1.5% agar).
(§2) Yeast colonies were then removed from YPD medium plates and suspended in a 0.9% NaCl saline solution, in which the cell concentration was estimated by optical microscopy using Kova counting slides.
(§3) A dilution was performed to obtain 15 ml of an inoculum at 3×10^6 CFU/ml, in a synthetic complete (SC) medium at pH 7 (2% glucose, 0.5% ammonium sulfate, 0.17% nitrogen-containing yeast base, 0.2% synthetic complete mixture, and 10% HEPES 1.5M pH 7.2) for C. albicans, C. parapsilosis, C. tropicalis and C. krusei, and in a solution of RPMI 1640 pH 7.3 (10% HEPES 1M pH 7.2) for C. glabrata, so as to reduce the formation of septa and clusters.
(§4) 1 ml of inoculum was then added to 2 ml of antifungal solution prepared in an SC or RPMI medium depending on the species of fungus, so as to obtain a final concentration of yeast of 10^6 CFU/ml and the desired concentration of antifungal agent according to table 1.
(§5) After homogenisation, the cultures were placed at 30° C. at 200 rpm, with the exception of cultures of C. glabrata, which were placed at 35° C. at 200 rpm, and incubated for a period of 6.5 h or 24 h.
(§6) After incubation, 100 μl of the culture of fungi obtained above were transferred in triplicate to 96-well plates, and 2.5 μl of Calcofluor White (CFW) were added to each well so as to mark the chitin of the cell walls of the yeasts.
(§7) A step of acquiring images by automated fluorescence microscopy (ScanR screening station, Olympus), using a 40× lens and a CFW filter, made it possible to obtain 30 images per well so as to capture enough cells to provide statistically significant data. These images were analysed by software (ScanR analysis software, Olympus). Firstly, the background noise was processed so as to improve the contrast between the fluorescence of the yeasts and background noise. A pixel threshold was then defined. Segmentation of the fluorescent elements present in each of the acquired images was then performed using an algorithm predefined in the software, making it possible to determine the limit of each element on the basis of the fluorescence intensity of said element. A size parameter was then applied to select the yeasts and eliminate the aggregates and the fluorescent debris.
(§8) Each element then corresponding to a yeast, it was thus possible, on the basis of these elements predefined beforehand, to define the fluorescence intensity for each of the yeasts, this intensity being directly correlated with the chitin content of their wall.
(§9) On the basis of said defined elements, it was also possible to automatically count the yeasts,
The strain ATCC®7349 of C. tropicalis was cultivated as described in paragraph I of the Examples section so as to obtain an inoculum at 3×10^6 CFU/ml in 15 ml of SC medium.
(§10) 2 ml of fluconazole solution prepared in the SC medium were then added to 1 ml of this inoculum so as to obtain a final concentration of yeast of 10^6 CFU/ml and of 16 μg/ml in fluconazole.
(§11) The inoculum was treated in the same way so as to obtain cultures of 10^6 CFU/ml and the following concentrations of fluconazole: 0.015 μg/ml, 0.031 μg/ml, 0.062 μg/ml, 0.125 μg/ml, 0.25 μg/ml, 0.5 μg/ml, 1 μg/ml, 2 μg/ml, 4 μg/ml, 8 μg/ml, 16 μg/ml.
After incubation for 24 h at 30° C. with stirring at 200 rpm, 100 μl of each culture were removed and transferred to 96-well plates. This procedure was performed in triplicate, and 2.5 μl of CFW were then added to each well.
(§12) The chitin level in the cell wall of the yeasts was then measured by […] analysis (HCA) microscopy, as described in paragraph II of the Examples section, in triplicate for each condition of concentration of fluconazole and without fluconazole. […]

Experiment [2] deals with strain DSY296 of C. albicans. Briefly: Etest method (MIC). The format is cell-based, Candida albicans. The note with it: RPMI medium plates, 24 h at 35° C.; for MIC: Candida albicans. Here is the method: (§13) The Etest® method is a commercial test for determining the sensitivity of a strain, most frequently used routinely in clinical mycology laboratories.
(§14) The Etest® tests were performed according to the manufacturer's instructions. After distributing a standardised Mac Farland 0.5 inoculum (equivalent of […]) over plates of RPMI medium, said plates were incubated for 24 h at 35° C., with the exception of C. glabrata in which case the incubation was extended to 48 h so as to be able to determine the minimum inhibitory concentration (MIC).
(§15) The results of the MICs obtained were interpreted in accordance with the tables of the CLSI (Clinical and Laboratory Standards Institute) and/or of EUCAST (European Committee on Antimicrobial Susceptibility Testing) (Arendrup M C, Cuenca-Estrella M, Lass-Flörl C, Hope W W (2014) Breakpoints for antifungal agents: an update from EUCAST focussing on echinocandins against Candida spp and triazoles against Aspergillus spp. Drug Resist Updat 16(6):81-95. doi:10.1016/j.drup.2014.01.001) (cf. Table 2 taken from Maubon D, Garnaud C, Calandra T, et al. (2014) Resistance of Candida spp. to antifungal drugs in the ICU: where are we now? Intensive Care Med. doi: 10.1007/s00134-014-3404-7) which list the clinical thresholds (CBPs) for the most common species of yeast of the genus Candida as a function of different antifungal agents, or according to the table of epidemiological thresholds (ECVs).

Experiment [3] has as its system strain ATCC®22019 of C. parapsilosis. Briefly: Etest method (MIC). It is filed as cell-based, Candida parapsilosis. As to conditions: for MIC: Lodderomyces parapsilosis, read-out: MIC (Etest method). The method, then:
as §13, §14, §15

Experiment [4] has the same test system. As to the kind of experiment: Sensitivity test by HCA microscopy (chitin level, Calcofluor White; cell count). It is filed as cell-based, Candida parapsilosis. As to conditions: SC medium; for decrease of the number of cells / increase of the chitin level in the wall of the cells: vs cells in the absence of antifungal agent. Here is the method:
as §1, §2, §3, §4, §5, §6, §7, §8, §9
The strain ATCC®22019 of C. parapsilosis was cultivated as described in paragraph I of the Examples section so as to obtain an inoculum at 3×10^6 CFU/ml in 15 ml of SC medium.
as §10, §11
After incubation for 6.5 h at 30° C. with stirring at 200 rpm, 100 μl of each culture were removed and transferred to 96-well plates. This procedure was performed in triplicate, and 2.5 μl of CFW were then added to each well.
as §12

The test system of experiment [5] is strain ATCC®7349 of C. tropicalis. As to the kind of experiment: Etest method (MIC). It is filed as cell-based, Candida tropicalis. The note with it: for MIC: Candida tropicalis, read-out: MIC (Etest method). The method, then:
as §13, §14, §15

[6] abbreviates: ATCC22019, RPMI medium plates, 24 h at 35° C.
[7] abbreviates: RPMI medium plates, 24 h at 35° C.
The mark [8] stands for this setting: 6.5 h at 30° C., concentration gradient of Table 1.
Setting [9] is: ATCC7349, RPMI medium plates, 24 h at 35° C.

Values after ≈ are worked out from the molar mass of the structure shown. Read-outs that look alike come from different tables or passages of the source. Starred links: 1 amine or outer side, 2 acyl side, 3 side chain; linkers in the order of their positions; H or OH if unused. Positions of bridges follow the written chain, without caps; N, C: chain ends. Non-standard residues stand in square brackets, D forms with d. Residues, ends and D or L forms follow the SMILES beside them. *: point of attachment. hTyr(3S-OH,4S-OH,3'-OSO3H) = N[C@H](C(=O)O)[C@H](O)[C@@H](O)c1ccc(O)c(OS(=O)(=O)O)c1; Orn(4R-OH,5R-OH) = O=C([C@H](C[C@@H](O)[C@@H](O)N[*:3])N[*:1])[*:2]; Pro(3S-OH,4S-Me) = C[C@H]1CN[C@H](C(=O)O)[C@H]1O; X1 = CCCCCOc1ccc(-c2cc(-c3ccc(C(=O)*)cc3)no2)cc1; Gln(3R-OH) = NC(=O)C[C@@H](O)[C@H](N)C(=O)O; Hyp = O=C(O)[C@@H]1C[C@@H](O)CN1

With `OC(Cn1cncn1)(Cn1cncn1)c1ccc(F)cc1F` [fluconazole], the “phenotype of the strain with respect to the antifungal agent (HCA)” value (from here on “phenotype of the strain”) in experiment [1] (24 h at 30° C.) is “sensitive (an increase in the chitin level greater than or equal to 20% is observed compared to the chitin level of a population of cells of said fungus in the absence of antifungal agent, as well as a decrease in the number of cells of at least 0.3 log)”; in experiment [4] (6.5 h at 30° C.), “sensitive (an increase in the chitin level greater than or equal to 20% is observed compared to the chitin level of a population of cells of said fungus in the absence of antifungal agent, as well as a decrease in the number of cells of at least 0.3 log)”. The “decrease of the number of cells” value in experiment [1] (24 h at 30° C.) and in experiment [4] (6.5 h at 30° C.) was “at least 0.3 log” in each case. The “increase of the chitin level in the wall of the cells” value (from here on “increase of the chitin level”) in experiment [1] (24 h at 30° C.) and in experiment [4] (setting [8]) was “greater than or equal to 20%” each time. Further, the MIC in experiment [2] came to 96 mg/L (≈ 313 µM); in experiment [3] (setting [6]), 1 mg/L (≈ 3.27 µM); in experiment [5] (setting [9]), 0.38 mg/L (≈ 1.24 µM). Also, in experiment [2], the “phenotype by Etest MIC, interpretation by the EUCAST and CLSI tables” value was “resistant”. For the same compound, the “phenotype by Etest MIC, interpretation by the EUCAST and/or CLSI tables” value (shortened to “phenotype … by the EUCAST and/or CLSI tables”) in experiment [3] (setting [7]) and in experiment [5] (setting [7]) was “sensitive” in each case.
Take `CCCCCOc1ccc(-c2cc(-c3ccc(C(=O)N[C@H]4C[C@@H](O)[C@@H](O)NC(=O)[C@@H]5[C@@H](O)[C@@H](C)CN5C(=O)[C@H]([C@H](O)CC(N)=O)NC(=O)[C@H]([C@H](O)[C@@H](O)c5ccc(O)c(OS(=O)(=O)O)c5)NC(=O)[C@@H]5C[C@@H](O)CN5C(=O)[C@H]([C@@H](C)O)NC4=O)cc3)no2)cc1` [micafungin] (X1-[Orn(4R-OH,5R-OH)]T[Hyp][hTyr(3S-OH,4S-OH,3'-OSO3H)][Gln(3R-OH)][Pro(3S-OH,4S-Me)]; lactam 1-C): the “phenotype of the strain” value is recorded as “sensitive (an increase in the chitin level greater than or equal to 20% is observed compared to the chitin level of a population of cells of said fungus in the absence of antifungal agent, as well as a decrease in the number of cells of at least 0.3 log)” in experiment [1] (6.5 h at 30° C.) and “sensitive (an increase in the chitin level greater than or equal to 20% is observed compared to the chitin level of a population of cells of said fungus in the absence of antifungal agent, as well as a decrease in the number of cells of at least 0.3 log)” in experiment [4] (24 h at 30° C.). In addition, the “decrease of the number of cells” value in experiment [1] (6.5 h at 30° C.) and in experiment [4] (24 h at 30° C.) was “at least 0.3 log” throughout. In addition, the “increase of the chitin level” value in experiment [1] (6.5 h at 30° C.) is “greater than or equal to 20%”; in experiment [4] (24 h at 30° C., concentration gradient up to 1 μg/ml), “greater than or equal to 20%”. In addition, the MIC in experiment [3] (ATCC22019, 24 h) stood at 0.19 mg/L (≈ 0.15 µM); in experiment [5] (ATCC7349, 24 h), 0.016 mg/L (≈ 0.0126 µM). Besides, the “phenotype … by the EUCAST and/or CLSI tables” value in experiment [3] (setting [7]) and in experiment [5] (setting [7]) was “sensitive” each time.
Take `C[C@@H](c1ncncc1F)[C@](O)(Cn1cncn1)c1ccc(F)cc1F` [voriconazole]: the “phenotype of the strain” value in experiment [1] (6.5 h at 30° C.) was “sensitive (an increase in the chitin level greater than or equal to 20% is observed compared to the chitin level of a population of cells of said fungus in the absence of antifungal agent, as well as a decrease in the number of cells of at least 0.3 log)”; in experiment [4] (6.5 h at 30° C.), “sensitive (an increase in the chitin level greater than or equal to 20% is observed compared to the chitin level of a population of cells of said fungus in the absence of antifungal agent, as well as a decrease in the number of cells of at least 0.3 log)”. Further, the “decrease of the number of cells” value in experiment [1] (6.5 h at 30° C.) and in experiment [4] (6.5 h at 30° C.) was “at least 0.3 log” throughout. The “increase of the chitin level” value in experiment [1] (6.5 h at 30° C.) and in experiment [4] (setting [8]) was “greater than or equal to 20%” in each case. The MIC in experiment [2] stood at 1 mg/L (≈ 2.86 µM); in experiment [3] (setting [6]), 0.023 mg/L (≈ 0.0658 µM); in experiment [5] (setting [9]) it was 0.023 mg/L (≈ 0.0658 µM). In addition, the “phenotype by Etest MIC, interpretation by the EUCAST and CLSI tables” value in experiment [2] was “resistant”. Moreover, the “phenotype … by the EUCAST and/or CLSI tables” value in experiment [3] (setting [7]) and in experiment [5] (setting [7]) was “sensitive” in each case.

A word on the MIC: it is the lowest concentration found to suppress growth.

The values are drawn from patent US11415513B2, “Method for determining the degree of sensitivity of a strain of fungus to an antifungal agent” (UNIVERSITE GRENOBLE ALPES, priority 2015, dated 2022).
